Experimental data: US5185352A, “Alkoxy-4(1H)-pyridone derivatives, processes for the preparation thereof and pharmaceutical compositions containing them” (Goedecke Aktiengesellschaft, priority 1988, dated 1993)
Structures can show the parent of a compound that is named as a salt.

target: calcium- and phospholipid-dependent protein kinase (PKC); assay: Inhibition of the activity of protein kinase C (incorporation of P^32-labelled phosphate into histone H-1); format: biochemical; conditions: PKC enriched from rat brain; histone H-1 substrate; 5 min, 30° C.; pH 7.5
Excerpt: For the clarification of the inhibiting influence of compounds of formula I according to the present invention on the calcium- and phospholipid-dependent protein kinase (PKC), this enzyme activity was enriched from rat brain. Using the purification steps described in the literature (J. Biol. Chem., 260, 15718-15722/1985), in the case of a purification consisting of two steps, there was utilized the property of the enzyme to bind to cell membranes in the presence of calcium and to be dissolved off again by calcium chelators (EGTA). In the first enrichment step, there took place the binding of the PKC to membranes of the rat brain and in the second step on so-called inside-out vesicles or erythrocytes. After dissolving off from the erythrocyte membranes and rebuffering, the PKC preparation was present in 10 mM HEPES, 1 mM DTT, 0.1% PEG 20000, pH 7.5. Under these conditions, it could be stored at -70° C. for several months without loss of activity.
The activity of the enzyme was determined via the incorporation of P^32 -labelled phosphate into the protein histone H-1 (Sigma Type III) which can be phosphorylated by PKC.
The test thereby contains the following components: 50 mM HEPES-NaOH (pH 7.5), 5 mM magnesium chloride, 1 mM DTT, 4 μm. free calcium ions, 10 μMaTP, 1 μg phosphatidylserine, 0.2 μg 1,2-diolein, as well as 40 μg histone H-1 and optionally the test substance.
The batch is preincubated for 4 minutes at 30° C. and the reaction then started by the addition of 5 nM PKC. After incubating for 5 minutes at 30° C., the reaction is stopped with 10% TCA and the samples then filtered off. The phosphate incorporation is determined by Cerenkov counting in a scintillation counter. The kinase activity measured in the absence of the test substance was, in each case, taken as being 100% and the inhibiting action of the compounds of formula I referred thereto as percentages.

Row | IC50 | SMILES
1 | 2.6 µM | CCCCCCCCCCCCCCCCCCOc1cn(Cc2ccccc2)c(CNCCCNC(C)c2ccccc2)cc1=O (racemic) [Example 83, (±)-1-Benzyl-5-octadecyloxy)-2-{N-[3-(1-phenylethyl)aminopropyl]-aminomethyl}-4(1H)-pyridone·trihydrochloride]
2 | 4.4 µM | CCCCCCCCCCCCCCCCCCOc1cn(Cc2ccccc2)c(CN2CCN(C(C)c3ccccc3)CC2)cc1=O (racemic) [Example 97, (±)-1-[(1-Benzyl-5-octadecyloxy-4(1H)-pyridone-2-yl)methyl]-4-(1-phenylethyl)piperazine·trihydrochloride 3/4 H2 O]
3 | 5.4 µM | CCCCCCCCCCCCCCCCCCOc1cn(C(C)c2ccccc2)c(CN2CCN(Cc3ccccc3)CC2)cc1=O (racemic) [Example 98, (±)-1-[(5-Octadecyloxy-1-(1-phenylethyl)-4(1H)-pyridone-2-yl)-methyl]-4-benzylpiperazine]
4 | 2 µM | CCCCCCCCCCCCCCCCCCOc1cn(Cc2ccccc2)c(CN2CCNCC2C)cc1=O (racemic) [Example 102, (±)-1-[(1-Benzyl-5-octadecyloxy-4(1H)-pyridon-2-yl)methyl]-2-methylpiperazine fumarate]
5 | 2.7 µM | CCCCCCCCCCCCCCCCCCOc1cn(C(C)c2ccccc2)c(CN2CCN(Cc3ccccc3)CC2)cc1=O (single isomer, unassigned; (+)) [Example 100, (+)-1-[(5-Octadecyloxy-1-(1-phenylethyl)-4(1H)-pyridone-2-yl)-methyl]-4-benzylpiperazine]
6 | 5.2 µM | CCCCCCCCCCCCCCCCCCOc1cn(C(C)c2ccccc2)c(CN2CCN(Cc3ccccc3)CC2)cc1=O (single isomer, unassigned; (-)) [Example 99, (-)-1-[(5-Octadecyloxy-1-(1-phenylethyl)-4(1H)-pyridone-2-yl)-methyl]-4-benzylpiperazine]
7 | 2.1 µM | CCCCCCCCCCCCCCCCCCOc1cn(Cc2ccccc2)c(CNCCCN)cc1=O [Example 61, 2-[N-(3-Aminopropyl)-aminomethyl]-1-benzyl-5-octadecyloxy-4(1H)-pyridone trihydrochloride]
8 | 4.4 µM | CCCCCCCCCCCCCCCCCCOc1cn(Cc2ccccc2)c(CN(C)C)cc1=O [Example 73, 1-Benzyl-2-dimethylaminomethyl-5-octadecyloxy-4(1H)-pyridone oxalate hemihydrate]
9 | 9.5 µM | CCCCCCCCCCCCCCCCCCOc1cn(Cc2ccccc2)c(CN(C)Cc2ccccc2)cc1=O [Example 75, 1-Benzyl-2-(N-benzyl-N-methylaminomethyl)-5-octadecyloxy-4(1H)-pyridone]

Further lines, the compound ahead of its results:

Row | SMILES | IC50
10 | CCCCCCCCCCCCCCCCCCOc1cn(CCCN(C)C)c(CO)cc1=O [Example 21, 1-(3-Dimethylaminopropyl)-2-hydroxymethyl-5-octadecyloxy-4(1H)-pyridone] | 2.4 µM
11 | CCCCCCCCCCCCCCCCCCOc1cn(C)c(CNCCCN(C)C)cc1=O [Example 56, 2-[N-(3-Dimethlaminopropyl)-aminomethyl]-1-methyl-5-octadecyloxy-4(1H)-pyridone trihydrochloride hemihydrate] | 2.9 µM
12 | CCCCCCCCCCCCCCCCCCOc1cn(Cc2ccccc2)c(CN(C)CCN(C)C)cc1=O [Example 57, 1-Benzyl-2-[N-(2-dimethylaminoethyl)-N-methylaminomethyl]-5-octadecyloxy-4(1H)-pyridone trihydrochloride] | 1.9 µM
13 | CCCCCCCCCCCCCCCCCCOc1cn(CCC)c(CNCCCN(C)C)cc1=O [Example 59, 2-[N-(3-Dimethylaminopropyl)aminomethyl]-5-octadecyloxy-1-propyl-4(1H)-pyridone dioxalate] | 2.9 µM
14 | CCCCCCCCCCCCCCCCCCOc1cn(C)c(CNCCCN)cc1=O [Example 60, 2-[N-(3-Aminopropyl)-aminomethyl]-1-methyl-5-octadecyloxy-4(1H)-pyridone trihydrochloride] | 2.7 µM
15 | CCCCCCCCCCCCCCOc1cn(Cc2ccccc2)c(CNCCCN(C)C)cc1=O [Example 65, 1-Benzyl-2-[N-(3-dimethylaminopropyl)aminomethyl]-5-tetradecyloxy-4(1H)-pyridone dioxalate monohydrate] | 6.5 µM
16 | CCCCCCCCCCCCCCCCCCCCOc1cn(Cc2ccccc2)c(CNCCCN(C)C)cc1=O [Example 66, 1-Benzyl-2-[N-(3-dimethylaminopropyl)aminomethyl]-5-eicosanyloxy-4(1H)-pyridone dioxalate monohydrate] | 2.5 µM
17 | CCCCCCCCCCCCCCCCCCOc1cn(CC2CCCCC2)c(CNCCCN(C)C)cc1=O [Example 68, 1-Cyclohexylmethyl-2-[N-(3-dimethylaminopropyl)aminomethyl]-5-octadecyloxy-4(1H)-pyridone difumarate] | 1.9 µM
18 | CCCCCCCCCCCCCCCCCCOc1cn(-c2ccccc2)c(CNCCCN(C)C)cc1=O [Example 70, 2-[N-(3-Dimethylaminopropyl)aminomethyl]-5-octadecyloxy-1-phenyl-4(1H)-pyridone] | 2.2 µM
19 | CCCCCCCCCCCCCCCCCCOc1cn(Cc2ccc(OC)cc2)c(CNCCCN(C)C)cc1=O [Example 72, 2-[N-(3-Dimethylaminopropyl)aminomethyl]-1-(4-methoxybenzyl)-5-octadecyloxy-4(1H)-pyridone trihydrochloride monohydrate] | 3.6 µM
20 | CCCCCCCCCCCCCCCCCCOc1cn(Cc2ccccc2OC)c(CNCCCN(C)C)cc1=O [Example 74, 2-[N-(3-Dimethylaminopropyl)aminomethyl]-1-(2-methoxybenzyl)-5-octadecyloxy-4(1H)-pyridone difumarate] | 2.1 µM
21 | CCCCCCCCCCCCCCCCCCOc1cn(Cc2ccc(C)cc2)c(CNCCCN(C)C)cc1=O [Example 76, 2-[N-(3-Dimethylaminopropyl)aminomethyl]-1-(4-methylbenzyl)-5-octadecyloxy-4(1H)-pyridone trihydrochloride hemihydrate] | 1.9 µM
22 | CCCCCCCCCCCCCCCCCCOc1cn(Cc2ccccc2)c(CNCCCCN)cc1=O [Example 77, 2-[N-(4-Aminobutyl)aminomethyl]-1-benzyl-5-octadecyloxy-4(1H)-pyridone trihydrochloride] | 2.3 µM
23 | CCCCCCCC/C=C\CCCCCCCCOc1cn(Cc2ccccc2)c(CNCCCN(C)C)cc1=O [Example 78] | 4.6 µM
24 | CCCCCCCCCCCCCCCCCCOc1cn(-c2ccc(OCc3ccccc3)cc2)c(CNCCCN(C)C)cc1=O [Example 79, 1-(4-Benzyloxyphenyl)-2-[N-(3-dimethylaminopropyl)aminomethyl]-5-octadecyloxy-4(1H)-pyridone] | 2.2 µM
25 | CCCCCCCCCCCCCCCCCCOc1cn(-c2ccc(OCc3ccccc3)cc2)c(CNCCCN(C)C)cc1=O [Example 80, 1-(4-Benzyloxyphenyl)-2-[N-(3-dimethylaminopropyl)aminomethyl]-5-octadecyloxy-4(1H)-pyridone·difumarate·2,5 H2 O] | 2.6 µM
26 | CCCCCCCCCCCCCCCCCCOc1cn(Cc2ccc(O)cc2)c(CNCCCN(C)C)cc1=O [Example 84] | 3.4 µM
27 | CCCCCCCCCCCCCCCCCCOc1cn(-c2ccc(O)cc2)c(CNCCCN(C)C)cc1=O [Example 85, 2-[N-(3-Dimethylaminopropyl)aminomethyl]-1-(4-hydroxyphenyl)-5-octadecyloxy-4(1H)-pyridone·trihydrochloride·0,5 H2 O] | 5.8 µM
